From ChEMBL document CHEMBL1127156, “m-Alkyl, ,,-trifluoroacetophenones: A new class of potent transition state analog inhibitors of acetylcholinesterase” (Bioorg Med Chem Lett, 1993) come the findings set out here.

One may read the Ki as a dissociation constant, usually derived from enzyme kinetics or from competition with a known ligand.

Molecules are shown by their SMILES.

The target in this assay is Acetylcholinesterase (Torpedo californica, UniProt P04058). The assay can be described thus: Tested for the ability to inhibit Acetylcholinesterase (AChE) from Torpedo californica. The arrangement: species or system Tetronarce californica.
Acetylcholinesterase, sequence (P04058 whole entry): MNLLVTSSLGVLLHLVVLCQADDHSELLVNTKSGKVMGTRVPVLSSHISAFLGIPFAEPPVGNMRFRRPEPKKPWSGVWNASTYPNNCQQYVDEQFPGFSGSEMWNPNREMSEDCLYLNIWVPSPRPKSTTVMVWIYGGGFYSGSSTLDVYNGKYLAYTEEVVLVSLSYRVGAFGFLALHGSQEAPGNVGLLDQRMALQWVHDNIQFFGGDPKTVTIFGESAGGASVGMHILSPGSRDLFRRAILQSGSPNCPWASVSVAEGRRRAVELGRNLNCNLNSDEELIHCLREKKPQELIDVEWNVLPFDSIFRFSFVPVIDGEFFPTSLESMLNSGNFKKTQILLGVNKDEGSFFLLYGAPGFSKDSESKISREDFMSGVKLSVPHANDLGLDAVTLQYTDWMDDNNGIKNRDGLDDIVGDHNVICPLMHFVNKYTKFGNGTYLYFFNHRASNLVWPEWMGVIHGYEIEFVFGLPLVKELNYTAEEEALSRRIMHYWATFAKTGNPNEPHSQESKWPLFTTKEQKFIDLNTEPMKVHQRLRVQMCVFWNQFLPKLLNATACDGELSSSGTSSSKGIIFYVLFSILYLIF
As to `CCc1cccc(C(=O)C(F)(F)F)c1`, the Ki is 0.39 nM. The value for `O=C(c1cccc(C(F)(F)F)c1)C(F)(F)F` was 0.39 nM. The compound `Cc1cccc(C(=O)C(F)(F)F)c1` gave a Ki of 2.4 nM. This Ki lies about 6.2-fold higher than the previous one. The value for `CC(C)c1cccc(C(=O)C(F)(F)F)c1` was 0.0085 nM; that for `CC(C)(C)c1cccc(C(=O)C(F)(F)F)c1` was 0.0037 nM.
